Measured values published in patent publication US20220378696A1, “TARGET DELIVERY OF NON-BIOLOGICS THROUGH NANOTECHNOLOGY FOR TISSUE REPAIR” (BOARD OF REGENTS, THE UNIVERSITY OF TEXAS SYSTEM, priority 2019, published 2022).

What was measured:
MMP-2 = MMP-2 enzyme activity assay (EnzChek) in cells exposed to microcavitation; format: cell-based, mouse; conditions: microcavitation (5 blasts), pretreatment 2 h: doxycycline 20 mM, phenanthroline 0.5 mM
Experimental: (§1) MMPs activities assay, Fold change, and Permeability measurement: EnzChek MMP-2 & 9 Assay Kit were used for MMP-2 & 9 activity assays. Cells were cultured in endothelial cell complete media and divided into the following groups: control (no treatment), exposed (5 blasts), doxycycline (20 mM)+exposed (5 blasts), doxycycline (20 mM), and phenanthroline (0.5 mM, positive control). Before initiating experiments, cells were washed with PBS, and no serum media was applied. Dishes in the treatment groups were pretreated with doxycycline or phenanthroline for 2 h at 37° C. Cells were exposed to microcavitation and incubated at 37° C. for 1 h. All groups were homogenized with lysis buffer containing 0.1% Triton-X 100, and protein was estimated with Pierce BCA Protein Assay Kit. Equal amounts of protein from each sample were aliquoted in lysis buffer. Samples were then analyzed using a plate reader at excitation 495 nm and 515 nm to quantitate MMP-2 & 9 activities. Primary brain endothelial cells were grown under the conditions described above. At the end of all experimental conditions, RNA from the cells was extracted and used for PCR analysis of the MMP-2 & 9 gene expressions. Finally, the permeability of the brain endothelium model exposed to doxycycline, P188, or in combination of them both was measured.

MMP-9 = MMP-9 enzyme activity assay (EnzChek) in cells exposed to microcavitation; format: cell-based, mouse; conditions: microcavitation (5 blasts), pretreatment 2 h: doxycycline 20 mM, phenanthroline 0.5 mM
Experimental: as §1

[1] = Drug encapsulation (loading) efficiency of PLGA NPs; format: physicochemical; conditions: in PLGA NPs
Experimental: Drug Encapsulation Efficiency. To find the amount of P188 and NAC within the NPs, P188 was fluorescently modified (TAMRA-P188) and loaded into the NPs. Fluorescence intensity of TAMRA-P188 in the supernatant was quantified over time using a plate reader. NAC was measured with high-performance liquid chromatography (HPLC). The results were converted into concentrations, and the loading efficiency for P188 and NAC were 85% and 28%, respectively, and calculated using the following equation.

[2] = In vitro drug release from PLGA NPs; format: physicochemical
Experimental: In vitro Drug Release. For the release studies, 1 mg each from all prepared NPs were dispersed in 1 ml of release medium (pH 7.4) each to form a suspension. Each suspension was in three replicates in 1.5 ml centrifuge tubes and incubated at 37° C. The release buffers were collected after centrifugation at 15,000 rpm for 30 min. The release buffers were replaced with fresh buffer at different periods and subjected to analysis using HPLC. The cumulative release of the model drug from each loaded NPs was plotted against time.

[3] = test system: brain endothelial cells (BECs); experiment: Mitochondrial superoxide (MitoSox) in TNF-α stimulated brain endothelial cells; format: cell-based, mouse; conditions: BECs stimulated by TNF-a (10 ng/ml) for 4 hours, then treated
Experimental: Next tested was the potential of reparative effects of two non-biologics. One is a triblock biocompatible polymer, known as poloxamers (P188), that was approved by FDA for numerous applications. […] The other compound is N-acetylcysteine (NAC), which is also an FDA-approved antioxidant that is associated with health benefits. […] Using a fluorophore (MitoSox) that preferentially binds to superoxide, the extent of oxidative stress in response to TNF-a were recorded and quantified. Oxidative stress is an important determinant of endothelial injury, which influences a number of cellular responses by activating several intracellular signaling cascades in endothelial cells, leading to the progression of vascular diseases. […] TNF-a induced a significant increase in oxidative stress and, if left untreated, the superoxide level persisted (FIG. 3B). […] This sequence of events may be engineered to accommodate short- and long-term beneficial responses. […]
Measurement of Mitochondrial Reactive Oxygen Species (ROS). Superoxide was measured using a MitoSoX™ Red mitochondrial superoxide indicator, according to the manufacturer's instructions. […] After washing three times with PBS, images were taken with a fluorescent microscope and fluorescence intensities were calculated using Nikon ND2 software.

SMILES | MMP-2 enzymatic activity (MMP-2) | MMP-9 enzymatic activity (MMP-9) | loading efficiency [1] | time within which most of the release was achieved [2] | release ([2]; in 7 days) | time required to reach a half of the maximum release ([2]; pH 7.4, 37° C., linear regression) | superoxide level (oxidative stress) [3]
c1cnc2c(c1)ccc1cccnc12 [phenanthroline] | inhibited | inhibited | – | – | – | – | –
CC(=O)N[C@@H](CS)C(=O)O [NAC, N-acetylcysteine] | – | – | 28% | ≤ 24 h | ~100% | ~7.7 h | noticeable attenuation of superoxide
